# Laboratory results reported in patent US20240116994A1, “Peptides And Use Thereof For Diagnosing And Treating Antiphospholipid Syndrome” (UNIVERSITE DE GENEVE, priority 2021, published 2024).
# Where no end group is shown, it is not given here.
# How the values were obtained:
# [1] = tested on: aPL from a pool of 13 Human patients; assay: Surface plasmon resonance, aPL flown over biotin-peptide-coated SA chip (BIAcore X100); type: binding
# Procedure: The kinetics and affinity of protein-protein and protein-lipid interactions were determined using a BIAcore X100 instrument. 1 mg/ml of biotin-tagged peptide (ligand) was immobilized using a sensor chip SA (GE Healthcare) surface, whereas aPL from a pool of 13 Human patients were flown as analyte. The first flow cell of the sensor chip was used as a control surface (no protein), whereas the second flow cell was employed as the active surface. A range of dilution of aPL analytes prepared in the same buffer was injected on both flow cell surfaces at a flow rate of 30 μl/min. Association and dissociation times for each protein injection were set at 90 and 120 s, respectively. In all cases, sensorgrams were obtained from three different dilutions of aPL.
# The de Groot's research group has pointed at the importance of hydrophobic character of the plate during coating of R39-R43 epitope. In order to abrogate of the plate-dependent aPL binding, the Ia-1 and Ib-1 peptides as well as the R39-R43 with a biotin at their N-terminal were synthetized and coated a streptavidin plate. In this configuration, the different peptides are flag oriented in the space preventing any interaction with the plate. It was thus observed that the flag-type orientation of R39-R43-biot leads to 8.52×more interaction with aPL while they show 9.63×more binding for Ib-1-biot presenting the same position. […] The surface plasmon resonance (SPR) technique is used to determine the relative avidity of aPL for R39-R43-biot and Ib-1-biot. The interaction between aPL and immobilized R39-R43-biot or Ib-1-biot is monitored by flowing various concentrations of aPL over a R39-R43-biot- or Ib-1-biot-coated chip surface (FIG. 1C). Through SPR experiments, it appears that aPL avidity for Ib-1-biot presents a resonance unit (RU) of 51.49 at 1/1,000 of dilution and a RU of 27.61 at 1/10,000 of dilution while, at the same dilution, it present a RU of 27.36 and a RU of 17.99 with R39-R43-biot, respectively (FIG. 1C). However, at higher concentrations, the peptides seems to show no differences in the interactions with aPL. […] Considering that IgG valency, it was decided to generate a dimeric Ib-1-biot peptide (Ib-1-biot-2x). This new polypeptide carries thus two optimized epitopes which have the opportunity to interact with two Fab fragment present on aPL. […] At higher concentration, i.e dilution of 1/100, the avidity for dimeric peptide is 28×more than for the monomeric (FIG. 1D).
# It was performed a peptide substitution scan of Ib-1-biot VSRGGMRKKKKPLTG (SEQ ID NO: 6) carrying the optimized epitope Ib-1-biot and based on an exchange of the underlined amino acid positions with the 20 main amino acids. The resulting peptide microarrays contained 140 different peptides. It was observed that the peptide substitution of the position n° 1, 2, 12 and 15 have significant influences on the ability to interact with aPL from patients 1, 2, 3, 4 and, in particular, form the plasma pool. Indeed, the substitution of the position 1, 12 or 15 by an Arginine (R) or a Lysine (K) increases the avidity of the peptide for all aPL from patients. […] In this context, the enhancement relative to Ib-1.0-biot-2x of identified peptides was evaluated (FIG. 2A). […] However, streptavidin being known to produce unspecific binding, it was used the ratio between aPL and a pool of human plasma as control (B/B0) (FIG. 2B, upper panel). This representation therefore allows to distinguish the real levels of interactions. It was then performed a dilution assay from dilution of 1/100 to 1/1,200,000 and it was observed relevant differences between the different identified peptides. By comparison of area under the curve (AUC), it was possible to detect the most prone-interacting peptide with aPL. Thus, the peptide IIa-8.0-biot-2x obtained the higher AUC (FIG. 2B, bottom panel). […]
# [2] = tested on: binding of aPL to IIa-8.0-biot-2x; assay: Inhibition experiments: remaining reactivity of pre-treated aPL on IIa-8.0-biot-2x ELISA; parameters: species or system Human; conditions: aPL preincubated 90 min at RT with beads 15, 30 and 60 pmol
# Procedure: To examine the functional ability of IIa-5.0, IIa-7.1, IIa-8.0 peptides and R39-R43 to inhibit the activity of pool of aPL isolated from APS patients, the remaining reactivity of aPL was evaluated for IIa-8.0-biot-2x which had previously been treated with increasing concentration of peptides. […] The flag-type orientation prevents potential interactions with the plate or with itself, particularly in solution. Streptavidin magnetic beads associated with IIa-5.0-biot-2x, IIa-7.1-biot-2x and Ha-8.0-biot-2x peptides have been generated. aPL was treated with increasing concentrations of beads before to measure the remaining binding activity of aPL on IIa-8.0-biot-2x ELISA (FIG. 7C).
# To assess the ability of IIa-5.0-2x, IIa-7.1-2x and IIa-8.0-2x to inhibit in vitro the binding of aPL to IIa-8.0-biot-2x. aPL pool sera were preincubated for 90 min at RT with increasing concentrations (1, 10 and 10011 g/ml) of monomeric, dimeric IIa-5.0, IIa-7.1 and IIa-8.0 peptides and of IIa-5.0-biot-2x, IIa-7.1-biot-2x and IIa-8.0-biot-2x-associated beads (15, 30 and 60 pmol). 120 pmol correspond to the amount of IIa-8.0-biot-2x coated in well of Streptavidin Coated High Capacity Plates 96 well plates (Thermofisher). After the pre-incubation time, the serum was added anti-b2GP1 IgG (anti-IIa-8.0-2x) ELISA according to the protocol.
substance,measurement,setting,value
"IIa-8.0-biot-2x: dimeric biotinylated IIa-8.0 peptide; also used associated with streptavidin magnetic beads (RSRGGMRKRKKPLTGRSRGGMRKRKKPLTG; also: dimeric peptide (two IIa-8.0 copies), biotinylated, site not given here)",SPR AUC relative to the initial target R39-43,[1],> 10 ×
same,avidity of aPL relative to avidity for Ib-1.0-biot-2x,[1]; all dilutions (FIG. 2C upper panel),1.3 ×
same,SPR AUC relative to Ib-1.0-biot-2x,[1]; dilution 1/100 (FIG. 2C bottom panel),2.3 ×
same,SPR AUC relative to Ib-1.0-biot-2x,"[1]; dilution 1/1,000 (FIG. 2C bottom panel)",3.43 ×
same,SPR AUC relative to Ib-1.0-biot-2x,"[1]; dilution 1/10,000 (FIG. 2C bottom panel)",10.5 ×
same,sustained interaction / stability of binding with aPL (shape of SPR curves),[1]; stabilization curves,sustained stability of binding is also significantly increased
same,inhibition of aPL binding to IIa-8.0-biot-2x ELISA by peptide associated with streptavidin magnetic beads,[2],dose dependently inhibited
